One test concerns the target T1, human wt P2X4 receptor (Homo sapiens, UniProt Q99571).
T1 construct: expressed in transfected cells
T1 sequence (Q99571 1-388): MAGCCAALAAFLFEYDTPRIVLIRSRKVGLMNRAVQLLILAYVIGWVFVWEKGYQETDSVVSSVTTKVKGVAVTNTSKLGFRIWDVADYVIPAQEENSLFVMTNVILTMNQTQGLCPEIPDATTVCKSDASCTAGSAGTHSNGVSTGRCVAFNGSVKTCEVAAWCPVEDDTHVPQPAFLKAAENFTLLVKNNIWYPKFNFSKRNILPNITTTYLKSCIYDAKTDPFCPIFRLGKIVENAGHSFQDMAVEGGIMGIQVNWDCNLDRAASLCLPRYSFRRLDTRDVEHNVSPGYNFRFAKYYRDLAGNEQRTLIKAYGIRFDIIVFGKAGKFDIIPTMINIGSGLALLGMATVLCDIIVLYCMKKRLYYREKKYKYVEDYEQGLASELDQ
The experiment in a line: ATP-induced calcium influx assay, human wt P2X4 receptor in 1321N1 astrocytoma cells. Type of test: cell-based. To be noted: wt hP2X4; calcium influx.

Test [1] concerns the target T2, human P2X4-E307T receptor mutant (Homo sapiens, UniProt Q99571, E307T).
T2 construct: expressed in transfected cells
T2 sequence (Q99571 1-388 E307T): T1 sequence (Q99571 1-388) with E307T
Kind of test: ATP-induced calcium influx assay, P2X4-E307T mutant in 1321N1 astrocytoma cells. Type of test: cell-based. To be noted: P2X4-E307T.

In test [2] the target is T3, chimeric P2X4(P2X2) receptor c10^R301-Q308 (Homo sapiens, UniProt Q99571, A304N/D302K/DEL301-301/E307T/L303I/N306T/Q308T).
T3 construct: expressed in transfected cells; gene synthesis (Geneart), pLVX-IRES-mCherry (bicistronic, mCherry not fused)
T3 sequence (Q99571 with tags, fused parts or gaps DEL301-301/D302K/L303I/A304N/N306T/E307T/Q308T): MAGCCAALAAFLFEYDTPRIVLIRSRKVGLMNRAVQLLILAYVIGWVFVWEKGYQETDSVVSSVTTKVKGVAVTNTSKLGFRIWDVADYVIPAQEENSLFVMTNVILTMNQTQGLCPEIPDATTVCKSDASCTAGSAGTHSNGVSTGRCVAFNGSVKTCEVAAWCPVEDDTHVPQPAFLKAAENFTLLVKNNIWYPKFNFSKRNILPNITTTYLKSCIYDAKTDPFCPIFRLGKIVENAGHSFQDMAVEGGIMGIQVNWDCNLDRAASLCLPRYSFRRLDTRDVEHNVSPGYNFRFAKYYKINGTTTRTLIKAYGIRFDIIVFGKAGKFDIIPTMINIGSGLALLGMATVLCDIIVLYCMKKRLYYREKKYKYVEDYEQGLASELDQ
Kind of test: ATP-induced calcium influx assay, chimeric receptor c10 in 1321N1 astrocytoma cells. The class given is cell-based.

The target in another test is T4, human wt P2X2 receptor (Homo sapiens, UniProt Q9UBL9).
T4 construct: expressed in transfected cells
T4 sequence (Q9UBL9 1-471): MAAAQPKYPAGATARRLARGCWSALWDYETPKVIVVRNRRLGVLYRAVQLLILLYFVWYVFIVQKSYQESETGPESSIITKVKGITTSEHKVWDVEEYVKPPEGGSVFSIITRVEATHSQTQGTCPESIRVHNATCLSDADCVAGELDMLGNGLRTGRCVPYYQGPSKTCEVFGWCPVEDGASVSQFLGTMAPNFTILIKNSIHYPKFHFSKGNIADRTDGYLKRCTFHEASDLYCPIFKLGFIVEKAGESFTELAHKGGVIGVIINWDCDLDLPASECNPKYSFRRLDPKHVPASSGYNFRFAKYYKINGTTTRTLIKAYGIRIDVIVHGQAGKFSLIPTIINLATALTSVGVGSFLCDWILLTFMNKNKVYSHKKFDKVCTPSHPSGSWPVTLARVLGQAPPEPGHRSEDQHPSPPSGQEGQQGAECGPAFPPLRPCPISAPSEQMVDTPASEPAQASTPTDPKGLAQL
Kind of test: ATP-induced calcium influx assay, human wt P2X2 receptor in 1321N1 astrocytoma cells. Type of test: cell-based.

For a further test, the system named is zebrafish P2X4 receptor. The arrangement: method as in PMID 19641588, PMID 12127972. To be noted: cited from earlier work.
For test [3], the target named is chimeric P2X4(P2X2) receptor c2-c5^C116-T186 (Homo sapiens, UniProt Q99571, A122H/A137L/A177Q/A181M/D121V/DEL149-175/E183P/G138D/H140L/INS118S/INS148CVPYYQGPSKTCEVFGWCPVEDGASV/INS179G/K127L/K180T/P120R/P176S/S131D/S136E/S141G/S145R/T123N/T124A/T133V/T139M/V125T/V144L). The experiment in a line: cell-based.
The target of test [4] is T5, chimeric P2X4(P2X2) receptor c6^N208-S216 (Homo sapiens, UniProt Q99571, I209R/N208D/S216R/T211D/T212G).
T5 sequence (Q99571 1-388 N208D/I209R/T211D/T212G/S216R): T1 sequence (Q99571 1-388) with N208D, I209R, T211D, T212G, S216R
Kind of test: cell-based.

The target of test [5] is chimeric P2X4(P2X2) receptor c7^I218-D224 (Homo sapiens, UniProt Q99571, A221E/D220H/I218T/K222A/T223S/Y219F). The experiment in a line: cell-based.
Test [6] has as its target P2X4-D302I receptor mutant (Homo sapiens, UniProt Q99571, D302I). The experiment in a line: cell-based.

Substitutions are numbered along the chain they refer to.

Data on one molecule can be found in article PMC12678798, “Discovery of an allosteric binding site for anthraquinones at the human P2X4 receptor” (Nature Communications, 2025).

Chain of P2X4-D302I receptor mutant (Q99571 whole entry D302I): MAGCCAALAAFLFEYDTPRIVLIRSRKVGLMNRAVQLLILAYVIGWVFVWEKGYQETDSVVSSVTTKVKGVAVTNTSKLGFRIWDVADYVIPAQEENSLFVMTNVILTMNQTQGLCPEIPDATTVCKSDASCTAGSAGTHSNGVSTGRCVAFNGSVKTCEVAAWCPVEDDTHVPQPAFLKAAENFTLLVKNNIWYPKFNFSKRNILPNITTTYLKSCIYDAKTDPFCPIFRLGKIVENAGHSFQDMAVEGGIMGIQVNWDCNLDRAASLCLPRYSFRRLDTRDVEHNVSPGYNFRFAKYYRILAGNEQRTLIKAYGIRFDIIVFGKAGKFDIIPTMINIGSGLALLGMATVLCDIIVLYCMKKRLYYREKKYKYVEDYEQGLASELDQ
Chain of chimeric P2X4(P2X2) receptor c7^I218-D224 (Q99571 whole entry I218T/Y219F/D220H/A221E/K222A/T223S): as the sequence (Q99571 whole entry D302I) above, with I218T, Y219F, D220H, A221E, K222A, T223S, I302D counted along it
Chain of chimeric P2X4(P2X2) receptor c2-c5^C116-T186 (Q99571 with tags, fused parts or gaps isoform Q99571-3 with the stated changes): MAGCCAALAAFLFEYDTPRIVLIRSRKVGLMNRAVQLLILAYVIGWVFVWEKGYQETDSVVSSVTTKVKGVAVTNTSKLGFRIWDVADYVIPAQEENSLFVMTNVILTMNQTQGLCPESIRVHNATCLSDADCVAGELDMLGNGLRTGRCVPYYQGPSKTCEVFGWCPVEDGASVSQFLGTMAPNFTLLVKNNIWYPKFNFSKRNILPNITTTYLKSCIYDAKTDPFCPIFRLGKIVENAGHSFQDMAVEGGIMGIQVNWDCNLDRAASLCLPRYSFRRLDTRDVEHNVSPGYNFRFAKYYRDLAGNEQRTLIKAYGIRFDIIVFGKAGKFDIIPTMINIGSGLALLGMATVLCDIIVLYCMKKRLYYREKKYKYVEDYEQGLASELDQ

Broadly, the EC50 is the concentration giving half of the maximal effect. Turning to `Nc1ncnc2c1ncn2[C@@H]1O[C@H](COP(=O)(O)OP(=O)(O)OP(=O)(O)O)[C@@H](O)[C@H]1O` [ATP, Adenosine 5′-triphosphate], the EC50 on human wt P2X4 receptor was 357 nM; in test [1] it was 921 nM; in test [2] it was 912 nM; on human wt P2X2 receptor (ATP EC50, wt hP2X2, calcium influx), 637 nM; on human wt P2X2 receptor (ATP pEC50 ± SEM, wt hP2X2), 759 nM; in test [3] it was 2290 nM. Besides, the EC50 in test [4] is 589 nM; in test [5] it was 1200 nM; in test [6] (ATP EC50, P2X4-D302I), 1600 nM; in test [6] (ATP pEC50 ± SEM, P2X4-D302I), 1410 nM. In addition, in [2] (calcium influx), the “EC50 of ATP at c10 higher than at wt P2X4” value is given as 2.4 fold. The “Potency of ATP at the zebrafish P2X4 receptor lower than at the human P2X4 receptor” value with zebrafish P2X4 receptor is “about 700 fold”.
